From patent US3993642A, “Penicillins” (Bayer Aktiengesellschaft, priority 1973, dated 1976)

What was measured:
Pseudomonas F 41 = test: MIC, test tube series dilution test; type: cell-based; conditions: 24 hours, 37°C, liquid medium
Excerpt: |D(+) Dextrose (Merck) 10 g

Pseudomonas Walter = test: MIC, test tube series dilution test; conditions: 24 hours, 37°C, liquid medium
E.coli B = test: MIC, test-tube dilution method; type: cell-based
E.coli 14 = test: Freedom from cloudiness in Muller-Hinton broth; type: cell-based; conditions: 100 μg/ml, 24 hours
E.coli C 165 = test: Freedom from cloudiness in Muller-Hinton broth; type: cell-based; conditions: 100 μg/ml, 24 hours
Proteus vulgaris 1017 = test: Freedom from cloudiness in Muller-Hinton broth; type: cell-based; conditions: 100 μg/ml, 24 hours
Klebsiella K 10 = test: Freedom from cloudiness in Muller-Hinton broth; type: cell-based; conditions: 100 μg/ml, 24 hours
Klebsiella 63 = test: Freedom from cloudiness in Muller-Hinton broth; type: cell-based; conditions: 100 μg/ml, 24 hours
Enterobacter sp. = test: Freedom from cloudiness in Muller-Hinton broth; type: cell-based; conditions: 100 μg/ml, 24 hours
Serratia sp. = test: Freedom from cloudiness in Muller-Hinton broth; type: cell-based; conditions: 100 μg/ml, 24 hours
[1] = tested on: Proteus, indole-negative, sp.; test: Freedom from cloudiness in Muller-Hinton broth; type: cell-based; conditions: 100 μg/ml, 24 hours
[2] = tested on: Proteus, indole-positive, sp.; test: Freedom from cloudiness in Muller-Hinton broth; type: cell-based; conditions: 100 μg/ml, 24 hours
[3] = tested on: Pasteurella psuedotuberculosis; test: Freedom from cloudiness in Muller-Hinton broth; type: cell-based; conditions: 100 μg/ml, 24 hours
Protocol: (§1) The compounds of the invention are also active against other genera of bacteria. This is shown by the following experiment, which was carried out with the compound of Example 1.
(§2) The compound of Example 1 was diluted to 100 μg/ml with Muller-Hinton nutrient broth, with the addition of 0.1% glucose. The nutrient solution in each case contained 1 × 10^5 to 2 × 10^5 bacteria per milliliter. The test tubes containing this mixture was incubated for 24 hours in each case and the degree of cloudiness was subsequently determined.

Salmonella sp. = test: Freedom from cloudiness in Muller-Hinton broth; type: cell-based; conditions: 100 μg/ml, 24 hours
Protocol: as §1, §2

Shigella sp. = test: Freedom from cloudiness in Muller-Hinton broth; type: cell-based; conditions: 100 μg/ml, 24 hours
Protocol: as §1, §2

Brucella sp. = type: cell-based; conditions: 100 μg/ml, 24 hours
Haemophilus influenzae = test: Freedom from cloudiness in Muller-Hinton broth; type: cell-based; conditions: 100 μg/ml, 24 hours
[4] = tested on: Bordetella bronchiseptica; test: Freedom from cloudiness in Muller-Hinton broth; type: cell-based; conditions: 100 μg/ml, 24 hours
Bacteroides sp. = test: Freedom from cloudiness in Muller-Hinton broth; type: cell-based; conditions: 100 μg/ml, 24 hours
[5] = tested on: Staphylococcus aureus 133; test: Freedom from cloudiness in Muller-Hinton broth; type: cell-based; conditions: 100 μg/ml, 24 hours
[6] = tested on: Neisseria catarrhalis sp.; test: Freedom from cloudiness in Muller-Hinton broth; type: cell-based; conditions: 100 μg/ml, 24 hours
[7] = tested on: Diplococcus pneumoniae sp.; test: Freedom from cloudiness in Muller-Hinton broth; type: cell-based; conditions: 100 μg/ml, 24 hours
Streptococcus pyogenes W = test: Freedom from cloudiness in Muller-Hinton broth; type: cell-based; conditions: 100 μg/ml, 24 hours
Enterococcus sp. = test: Freedom from cloudiness in Muller-Hinton broth; type: cell-based; conditions: 100 μg/ml, 24 hours
Lactobacillus sp. = test: Freedom from cloudiness in Muller-Hinton broth; type: cell-based; conditions: 100 μg/ml, 24 hours
[8] = tested on: Corynebacterium diphteriae gravis; test: Freedom from cloudiness in Muller-Hinton broth; type: cell-based; conditions: 100 μg/ml, 24 hours
[9] = tested on: Corynebacterium pyogenes M; test: Freedom from cloudiness in Muller-Hinton broth; type: cell-based; conditions: 100 μg/ml, 24 hours
Clostridium botulinium = type: cell-based; conditions: 100 μg/ml, 24 hours
Clostridium tetani = type: cell-based; conditions: 100 μg/ml, 24 hours
Borrelia sp. = test: Freedom from cloudiness in Muller-Hinton broth; type: cell-based; conditions: 100 μg/ml, 24 hours
[10] = tested on: Pseudomonas aeruginosa sp.; test: Freedom from cloudiness in Muller-Hinton broth; type: cell-based; conditions: 100 μg/ml, 24 hours
Aeromonas hydrophila sp. = test: Freedom from cloudiness in Muller-Hinton broth; type: cell-based; conditions: 100 μg/ml, 24 hours
E. coli C 165 = test: Animal experiments with white mice infected intraperitoneally; type: in vivo, white mice of strain CF1; conditions: subcutaneously, 1 × (1 administration, 30 minutes after infection)
Protocol: (§3) The white mice of strain CF1 were infected intraperitoneally with the species of bacteria indicated in each case. |Animal experiments with white mice: |Determination of the ED50 after 24 hours. | Dose in units of the | penicillin compound of | Example 1 per kg, given |Germ subcutaneously |Therapy: | 1 administration: | 30 minutes after infection The ED50 is a dose at which 50% of the infected animals still survive after 24 hours.

Staphyloccus aureus = test: as above; type: in vivo, white mice of strain CF1; conditions: subcutaneously, 1 × (1 administration, 30 minutes after infection)
Protocol: as §3

[11] = tested on: Pseudomonas aeruginosa F 41; test: as above; type: in vivo, white mice of strain CF1; conditions: subcutaneously, 4 × (per administration; 30 minutes, 2, 4 and 6 hours after infection)
Protocol: as §3, with “4 administrations:” for “1 administration:”, “minutes, 2 hours, 4 hours | and 6 hours” for “minutes”

Pseudomonas aeruginosa W = test: as above; type: in vivo, white mice of strain CF1; conditions: subcutaneously, 4 × (per administration; 30 minutes, 2, 4 and 6 hours after infection)
Protocol: as §3, with “4 administrations:” for “1 administration:”, “minutes, 2 hours, 4 hours | and 6 hours” for “minutes”

E.coli 26/6 = test: MIC, test-tube dilution method
Proteus morg. = test: MIC, test-tube dilution method
Proteus vulg. = test: MIC, test-tube dilution method
Klebsiella pneum. = test: MIC, test-tube dilution method
Staph.aureus 133 = test: MIC, test-tube dilution method
Enterococcus ATCC 9790 = test: MIC, test-tube dilution method
[12] = Solubility noted during working up; type: physicochemical
Excerpt: Yield 42% of sodium D(-) -α-[(3-oxo-4-methyl-pyrazolidin-1-yl)-carbonylamino]-benzylpenicillin.

## Cc1cn(C(=O)N[C@@H](C(=O)N[C@@H]2C(=O)N3[C@@H]2SC(C)(C)[C@@H]3C(=O)O)c2ccc(O)cc2)[nH]c1=O [Example 8, Sodium D(-)-α-[(4-methyl-5-oxo-3-pyrazolin-2-yl)-carbonylamino]-p-hydroxybenzylpenicillin]
Pseudomonas F 41
  MIC: 8 - 16 μ/ml
Pseudomonas Walter
  MIC: 8 μ/ml

## CC1(C)S[C@@H]2[C@H](NC(=O)C(C(=O)O)c3ccccc3)C(=O)N2[C@H]1C(=O)O (stereo partly drawn) [Carbenicillin, reference compound]
Pseudomonas F 41
  MIC: > 200 μ/ml
Pseudomonas Walter
  MIC: 200 μ/ml

## CC1(C)S[C@@H]2[C@H](NC(=O)[C@H](NC(=O)n3cc(-c4ccccc4)c(=O)[nH]3)c3ccccc3)C(=O)N2[C@H]1C(=O)O [Example 2 C, sodium D(-)-α-[(4-phenyl-5-oxo-3-pyrazolin-2-yl)-carbonylamino]-penzylpenicillin]
Pseudomonas F 41
  MIC: 4 μ/ml
Pseudomonas Walter
  MIC: 4 μ/ml

## Cc1cn(C(=O)N[C@@H](C(=O)N[C@@H]2C(=O)N3[C@@H]2SC(C)(C)[C@@H]3C(=O)O)c2ccccc2)[nH]c1=O [Example 1 B, sodium D(-)-α-[(4-methyl-5-oxo-3-pyrazolin-2-yl)-carbonylamino]-benzylpenicillin]
Pseudomonas F 41
  MIC: 8 μ/ml
E.coli B
  MIC: 32 U/ml
E.coli 14
  Freedom from cloudiness: free of cloudiness
E.coli C 165
  Freedom from cloudiness: free of cloudiness
Proteus vulgaris 1017
  Freedom from cloudiness: free of cloudiness
Klebsiella K 10
  Freedom from cloudiness: free of cloudiness
Klebsiella 63
  Freedom from cloudiness: free of cloudiness
Enterobacter sp.
  Freedom from cloudiness: free of cloudiness
Serratia sp.
  Freedom from cloudiness: free of cloudiness
[1]
  Freedom from cloudiness: free of cloudiness
[2]
  Freedom from cloudiness: free of cloudiness
[3]
  Freedom from cloudiness: free of cloudiness
Salmonella sp.
  Freedom from cloudiness: free of cloudiness
Shigella sp.
  Freedom from cloudiness: free of cloudiness
Brucella sp.
  Freedom from cloudiness: free of cloudiness
Haemophilus influenzae
  Freedom from cloudiness: free of cloudiness
[4]
  Freedom from cloudiness: free of cloudiness
Bacteroides sp.
  Freedom from cloudiness: free of cloudiness
[5]
  Freedom from cloudiness: free of cloudiness
[6]
  Freedom from cloudiness: free of cloudiness
[7]
  Freedom from cloudiness: free of cloudiness
Streptococcus pyogenes W
  Freedom from cloudiness: free of cloudiness
Enterococcus sp.
  Freedom from cloudiness: free of cloudiness
Lactobacillus sp.
  Freedom from cloudiness: free of cloudiness
[8]
  Freedom from cloudiness: free of cloudiness
[9]
  Freedom from cloudiness: free of cloudiness
Clostridium botulinium
  Freedom from cloudiness: free of cloudiness
Clostridium tetani
  Freedom from cloudiness: free of cloudiness
Borrelia sp.
  Freedom from cloudiness: free of cloudiness
[10]
  Freedom from cloudiness: free of cloudiness
Aeromonas hydrophila sp.
  Freedom from cloudiness: free of cloudiness
E. coli C 165
  ED50 after 24 hours: 200,000 units per kg
Staphyloccus aureus
  ED50 after 24 hours: 40,000 units per kg
[11]
  ED50 after 24 hours: 100,000 units per kg
Pseudomonas aeruginosa W
  ED50 after 24 hours: 75,000 units per kg
E.coli 26/6
  MIC: 1 U/ml
Proteus morg.
  MIC: 128 U/ml
Proteus vulg.
  MIC: 128 U/ml
Klebsiella pneum.
  MIC: 128 U/ml
Staph.aureus 133
  MIC: 0.5 U/ml
Enterococcus ATCC 9790
  MIC: 32 U/ml
Pseudomonas Walter
  MIC: 8 μ/ml

## CC1(C)S[C@@H]2[C@H](NC(=O)[C@H](NC(=O)N3CCC(=O)N3)c3ccccc3)C(=O)N2[C@H]1C(=O)O [Example 10 C, Sodium D(-)-α-[(3-oxo-pyrazolidin-1-yl)-carbonylamino]-benzylpenicillin]
Pseudomonas Walter
  MIC: 8 - 16 μ/ml

## CC1(C)S[C@@H]2[C@H](NC(=O)[C@H](NC(=O)N3NC(=O)CC3c3ccccc3)c3ccccc3)C(=O)N2[C@H]1C(=O)O (single isomer, unassigned) [Example 14, sodium D(-)-α-[(3-oxo-5-phenyl-pyrazolidin-1-yl)-carbonylamino]-benzylpenicillin]
Pseudomonas Walter
  MIC: 4 - 16 μ/ml

## CC1(C)S[C@@H]2[C@H](NC(=O)[C@H](N)c3ccccc3)C(=O)N2[C@H]1C(=O)O [Ampicillin, α-aminobenzylpenicillin, reference compound]
Pseudomonas F 41
  MIC: > 400 μ/ml
Pseudomonas Walter
  MIC: > 400 μ/ml

## CC1CN(C(=O)N[C@@H](C(=O)N[C@@H]2C(=O)N3[C@@H]2SC(C)(C)[C@@H]3C(=O)O)c2ccccc2)NC1=O (single isomer, unassigned) [Example 11 C, sodium D(-) -α-[(3-oxo-4-methyl-pyrazolidin-1-yl)-carbonylamino]-benzylpenicillin]
Pseudomonas Walter
  MIC: 16 - 64 μ/ml

## CC1CN(C(=O)N[C@@H](C(=O)N[C@@H]2C(=O)N3[C@@H]2SC(C)(C)[C@@H]3C(=O)O)c2ccccc2)NC1=O (single isomer, unassigned) [free penicillic acid, D(-)-α-[(3-oxo-4-methyl-pyrazolidin-1-yl)-carbonylamino]-benzylpenicillin]
[12]; ethyl acetate
  solubility in ethyl acetate: sparingly soluble
[12]; water
  solubility in water: sparingly soluble

## Cc1cn(C(=O)N[C@@H](C(=O)N[C@@H]2C(=O)N3[C@@H]2SC(C)(C)[C@@H]3C(=O)O)C2=CCC=CC2)[nH]c1=O [Example 9, Sodium D(-)-α-[(4-methyl-5-oxo-3-pyrazolin-2-yl)-carbonylamino]-α-(cyclohexa-1,4-dien-1-yl)-methylpenicillin]
Pseudomonas F 41
  MIC: 8 - 16 μ/ml
Pseudomonas Walter
  MIC: 16 - 32 μ/ml
